Values quoted from earlier work in patent EP4732833A1, “ROPIVACAINE MICROSPHERE AND PREPARATION METHOD THEREFOR” (Bostal Drug Delivery Co., Ltd., priority 2023, dated 2025).

Conditions: background statement

plasma half-life: 1.8 h
Compound: CCCN1CCCC[C@H]1C(=O)Nc1c(C)cccc1C [Ropivacaine, (S)-N-(2,6-dimethylphenyl)-1-propylpiperidine-2-carboxamide]
